Patent US20100197591A1, “4-AMINO-7,8-DIHYDROPYRIDO[4,3-d]PYRIMIDIN-5(6H)-ONE DERIVATIVES” (pfizer Inc, priority 2009, published 2010)

Molecular target: T1, Human full-length diacylglycerol:acylCoA acyltransferase 1 (DGAT-1) (Homo sapiens, UniProt O75907)
T1 construct: Human full-length diacylglycerol:acylCoA acyltransferase 1 (DGAT-1) was expressed in Sf9 insect cells; made in house; host or cells: Sf9 insect cells (baculovirus); crude membrane/microsome fraction
T1 sequence (O75907 1-488): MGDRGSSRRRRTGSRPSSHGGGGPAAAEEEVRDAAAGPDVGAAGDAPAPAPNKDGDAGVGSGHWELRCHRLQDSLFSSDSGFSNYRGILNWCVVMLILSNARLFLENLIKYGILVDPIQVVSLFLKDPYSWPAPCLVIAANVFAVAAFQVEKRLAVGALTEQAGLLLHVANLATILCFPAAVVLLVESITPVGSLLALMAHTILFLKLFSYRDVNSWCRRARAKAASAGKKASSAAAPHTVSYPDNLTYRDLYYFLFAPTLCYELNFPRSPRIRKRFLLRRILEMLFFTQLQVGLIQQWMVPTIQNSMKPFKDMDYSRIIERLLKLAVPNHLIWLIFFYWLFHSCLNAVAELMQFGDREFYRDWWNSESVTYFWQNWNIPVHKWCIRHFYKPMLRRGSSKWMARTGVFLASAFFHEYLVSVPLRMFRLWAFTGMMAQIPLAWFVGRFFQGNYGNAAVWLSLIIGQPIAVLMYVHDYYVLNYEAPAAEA
Assay: DGAT-1 Reduced Microsome Multidose Assay, G7329F Human IC50
Format: biochemical
Conditions: crude membrane fraction of Sf9 cells expressing human DGAT-1; [14C]decanoylCoA; apparent IC50, average where tested more than once
Method: Human full-length diacylglycerol:acylCoA acyltransferase 1 (DGAT-1) was expressed in Sf9 insect cells which are then lysed and a crude membrane fraction (105,000×g pellet) was prepared. The DGAT-1 gene is a human DGAT-1 gene described in J Biol Chem 273:26765 (1998) and U.S. Pat. No. 6,100,077.
In vitro inhibition of DGAT-1 was measured using a modification, further described below, of the assay methodology described in U.S. Pat. No. 6,994,956 B2.
The cells were cultured as follows. Sf9 cells (20 L) were infected with 4 mL of DGAT-1 Baculovirus Infected Insect Cells (BIIC) for 72 hours in a Wave Bioreactor System 20/50P (Wave Biotec/GE Healthcare).
Crude DGAT-1 microsomes were prepared as follows. Cell pellets were washed once with ice-cold Dulbecco's phosphate-buffered saline. Cells were collected in tabletop centrifuge (Beckman GS-6KR), 15 minutes, 2000×g, 4° C. Twenty (20) mL of ice-cold Microsome Buffer (MB) was added per 5 g of cell pellet. The suspension was passed through a microfluidizer 3 times (18K psi). The lysate was transferred to centrifuge tubes and centrifuged for 20 minutes at 5000×g (Beckman-Coulter, Inc. Allegra® 64R High-Speed Refrigerated Benchtop Centrifuge, F0650 rotor) at 4° C. The supernatant was transferred to ultracentrifuge tubes and centrifuged at 125,000×g for 1 hour in a Beckman Ti-45 rotor, 4° C. The supernatant fluid was discarded. The pellet was resuspended in 70 mL of MB by sonication. The microsome concentration was determined using Bio-Rad Protein DC Protein Assay. The microsomes were filter sterilized with a 0.22 μm filter. The samples were portioned, flash frozen and stored at −80° C.
The Microsome Buffer, used for microsome preparation, was prepared by conventional means and contained 125 mM sucrose, 3 mM imidazole, 0.2 μg/mL aprotinin, 0.2 μg/mL leupeptin and 5 mM dithiothreitol (Cleland's reagent), DGAT-1 activity was measured in 384-well format in a total assay volume of 25 μl that contained, Hepes buffer (50 mM, pH 7.5), MgCl2 (10 mM), bovine serum albumin (0.6 mg/ml), [^14C]decanoylCoA (20 μM, 58 Ci/mol) and membranes (25 μg/ml) into which 1,2 dioleoyl-sn-glycerol (75 μM) in acetone has already been incorporated. Inhibitors in DMSO were pre-incubated with membranes before initiating the DGAT-1 reaction by the addition of decanoylCoA. […] The DMSO concentration was 2.5%. The inhibitors were present at a range of eight concentrations to generate an apparent IC50 for each compound. The eight inhibitor concentration employed ranged from 10 μM to 3 nM (from high to low concentration). Specifically, the eight concentrations used were 10 μM, 3 μM, 1 μM, 300 nM, 100 nM, 30 nM, 10 nM and 3 nM.
Reaction mixtures were neutralized by the addition of 15 μl of tris(hydroxy-methyl)aminomethane (1M, pH 8.0) and then mixed by trituration with 37.5 μl of Microscint™-E (Perkin Elmer). Plates contents were allowed to partition for 15 to 30 min before ^14C was measured in a scintillation spectrometer (Wallac Microbeta Trilux 1450-030 liquid scintillation counter 12 detector in the top-count DPM mode). Percent inhibition of test compounds was computed as […].
Four separate assays were performed using 4 different methods of analysis. The method of analysis of Assay 1 was the same as Assay 4 (described above) except microsomes were utilized at 25 μg/mL instead of 5 μg/mL. The method of analysis of Assay 2 was the same as Assay 4 (described above) except eleven (11) concentrations of inhibitor were employed instead of eight (8). The method of analysis of Assay 3 was the same as Assay 2 except the compounds were serially diluted in a different laboratory.
Where this DGAT-1 inhibition assay was performed on a compound more than once, an average is provided for that compound.

IC50 [nM]	Structure (SMILES)
126	CNC(=O)C(C)(C)c1ccc(N2CCc3nc(OC)nc(N)c3C2=O)cc1 [Example 3G, 2-[4-(4-amino-2-methoxy-5-oxo-7,8-dihydropyrido[4,3-d]pyrimidin-6(5H)-yl)phenyl]-N,2-dimethylpropanamide]
260	COc1nc(N)c2c(n1)CCN(c1ccc(C(C)(C)C(=O)N(C)C)cc1)C2=O [Example 3H, 2-[4-(4-amino-2-methoxy-5-oxo-7,8-dihydropyrido[4,3-d]pyrimidin-6(5H)-yl)phenyl]-N,N,2-trimethylpropanamide]
52.8	COc1nc(N)c2c(n1)CCN(c1ccc(C(C)(C)C(N)=O)cc1)C2=O [Example 3I, 2-[4-(4-amino-2-methoxy-5-oxo-7,8-dihydropyrido[4,3-d]pyrimidin-6(5H)-yl)phenyl]-2-methylpropanamide]
795	COc1nc(N)c2c(n1)CCN(c1ccc(C(C)(C)c3ncnn3C)cc1)C2=O [Example 3K, 4-amino-2-methoxy-6-{4-[1-methyl-1-(1-methyl-1H-1,2,4-triazol-5-yl)ethyl]phenyl}-7,8-dihydropyrido[4,3-d]pyrimidin-5(6H)-one]
78.5	COc1nc(N)c2c(n1)CCN(c1ccc(C(C)(C)c3ncn[nH]3)cc1)C2=O [Example 3N]
88.3	COc1nc(N)c2c(n1)CCN(c1ccc(C(C)(C)C#N)cc1)C2=O [Example 3O, 2-[4-(4-amino-2-methoxy-5-oxo-7,8-dihydropyrido[4,3-d]pyrimidin-6(5H)-yl)phenyl]-2-methylpropanenitrile]
20.9	COc1nc(N)c2c(n1)CCN(c1ccc(C(C)(C)c3nnn[nH]3)cc1)C2=O [Example 3P, 4-amino-2-methoxy-6-{4-[1-methyl-1-(1H-tetrazol-5-yl)ethyl]phenyl}-7,8-dihydropyrido[4,3-d]pyrimidin-5(6H)-one]
84.3	COc1nc(N)c2c(n1)CCN(c1ccc(C(C)(C)CNC(C)=O)cc1)C2=O [Example 3U, N-{2-[4-(4-amino-2-methoxy-5-oxo-7,8-dihydropyrido[4,3-d]pyrimidin-6(5H)-yl)phenyl]-2-methylpropyl}acetamide]
873	COc1nc(N)c2c(n1)CCN(c1cccc(C(C)C)c1)C2=O [Example 6B, 4-amino-6-(3-isopropylphenyl)-2-methoxy-7,8-dihydropyrido[4,3-d]pyrimidin-5(6H)-one]
37.7	COc1nc(N)c2c(n1)CCN(c1cccc(C(C)(C)C)c1)C2=O [Example 6C, 4-amino-6-(3-tert-butylphenyl)-2-methoxy-7,8-dihydropyrido[4,3-d]pyrimidin-5(6H)-one]
899	CCOc1nc(N)c2c(n1)CCN(c1ccc(C(C)(C)C)cc1)C2=O [Example 6D, 4-amino-6-(4-tert-butylphenyl)-2-ethoxy-7,8-dihydropyrido[4,3-d]pyrimidin-5(6H)-one]
329	COc1nc(N)c2c(n1)CCN(c1ccc(C(F)(F)F)cc1)C2=O [Example 6F, 4-amino-2-methoxy-6-[4-(trifluoromethyl)phenyl]-7,8-dihydropyrido[4,3-d]pyrimidin-5(6H)-one]
19.8	COc1nc(N)c2c(n1)CCN(c1ccc(C(C)C)cc1F)C2=O [Example 6G, 4-amino-6-(2-fluoro-4-isopropylphenyl)-2-methoxy-7,8-dihydropyrido[4,3-d]pyrimidin-5(6H)-one]
12.6	COc1nc(N)c2c(n1)CCN(c1ccc(C(C)(C)C)c(F)c1)C2=O [Example 6H, 4-amino-6-(4-tert-butyl-3-fluorophenyl)-2-methoxy-7,8-dihydropyrido[4,3-d]pyrimidin-5(6H)-one]
4.9	COc1nc(N)c2c(n1)CCN(c1ccc(C(C)(C)C)cc1F)C2=O [Example 6I, 4-amino-6-(4-tert-butyl-2-fluorophenyl)-2-methoxy-7,8-dihydropyrido[4,3-d]pyrimidin-5(6H)-one]
256	COc1nc(N)c2c(n1)CCN(c1ccc3c(c1)N(C)C(=O)C3(C)C)C2=O [Example 6J, 4-amino-2-methoxy-6-(1,3,3-trimethyl-2-oxo-2,3-dihydro-1H-indol-6-yl)-7,8-dihydropyrido[4,3-d]pyrimidin-5(6H)-one]
32.7	COc1nc(N)c2c(n1)CCN(c1ccc(C(C)(C)C(F)(F)F)cc1)C2=O [Example 6K, 4-amino-2-methoxy-6-[4-(2,2,2-trifluoro-1,1-dimethylethyl)phenyl]-7,8-dihydropyrido[4,3-d]pyrimidin-5(6H)-one]
38.7	COc1nc(N)c2c(n1)CCN(c1ccc([C@H]3CC[C@H](Cc4nc(C)no4)CC3)c(F)c1)C2=O [Example 7E, 4-amino-6-(3-fluoro-4-{trans-4-[(3-methyl-1,2,4-oxadiazol-5-yl)methyl]cyclohexyl}phenyl)-2-methoxy-7,8-dihydropyrido[4,3-d]pyrimidin-5(6H)-one]
1570	COc1nc(N)c2c(n1)CCN(c1ccc(C(C)(C)NC(C)=O)cc1)C2=O [Example 8A, N-{1-[4-(4-amino-2-methoxy-5-oxo-7,8-dihydropyrido[4,3-d]pyrimidin-6(5H)-yl)phenyl]-1-methylethyl}acetamide]
68.9	COc1nc(N)c2c(n1)CCN(c1ccc(Cl)c(Cl)c1)C2=O [Example 9A, 4-amino-6-(3,4-dichlorophenyl)-2-methoxy-7,8-dihydropyrido[4,3-d]pyrimidin-5(6H)-one]
104	COc1nc(N)c2c(n1)CCN(c1ccc3c(c1)OCCO3)C2=O [Example 9B, 4-amino-6-(2,3-dihydro-1,4-benzodioxin-6-yl)-2-methoxy-7,8-dihydropyrido[4,3-d]pyrimidin-5(6H)-one]
594	COc1nc(N)c2c(n1)CCN(c1ccccc1)C2=O [Example 9C, 4-amino-2-methoxy-6-phenyl-7,8-dihydropyrido[4,3-d]pyrimidin-5(6H)-one]
101	COc1nc(N)c2c(n1)CCN(c1ccc(Cl)c(F)c1)C2=O [Example 9D, 4-amino-6-(4-chloro-3-fluorophenyl)-2-methoxy-7,8-dihydropyrido[4,3-d]pyrimidin-5(6H)-one]
747	COc1nc(N)c2c(n1)CCN(c1ccc(Cl)cc1)C2=O [Example 9F, 4-amino-6-(4-chlorophenyl)-2-methoxy-7,8-dihydropyrido[4,3-d]pyrimidin-5(6H)-one]
102	COc1nc(N)c2c(n1)CCN(c1ccc(OC(C)C)cc1)C2=O [Example 9G, 4-amino-6-(4-isopropoxyphenyl)-2-methoxy-7,8-dihydropyrido[4,3-d]pyrimidin-5(6H)-one]
